Experiments:
Assay in all cases: Test E postemergence
field bindweed = assay type: in vivo, Convolvulus arvensis
Text: (§1) Seeds of plant species selected from corn (Zea mays), soybean (Glycine max), velvetleaf (Abutilon theophrasti), lambsquarters (Chenopodium album), wild poinsettia (Euphorbia heterophylla), palmer pigweed (Amaranthus palmeri), waterhemp (common waterhemp, Amaranthus rudis), surinam grass (Brachiaria decumbens), large (Lg) crabgrass (Digitaria sanguinalis), Brazilian crabgrass (Digitaria horizontalis), fall panicum (Panicum dichotomiflorum), giant foxtail (Setaria faberii), green foxtail (Setaria viridis), goosegrass (Eleusine indica), johnsongrass (Sorghum halepense), ragweed (common ragweed, Ambrosia elatior), barnyardgrass (Echinochloa crus-galli), sandbur (southern sandbur, Cenchrus echinatus), arrowleaf sida (Sida rhombifolia), Italian ryegrass (Lolium multiflorum), dayflower (Virginia (VA) dayflower, Commelina virginica), field bindweed (Convolvulus arvensis), morningglory (Ipomoea coccinea), nightshade (eastern black nightshade, Solanum ptycanthum), kochia (Kochia scoparia), yellow nutsedge (Cyperus esculentus), cocklebur (common cocklebur, Xanthium strumarium), smartweed (ladysthumb smartweed, and hairy beggarticks (Bidens pilosa), were planted into a silt loam soil and treated preemergence with test chemicals formulated in a non-phytotoxic solvent mixture which included a surfactant.
(§2) At the same time, plants from these crop and weed species and also horseweed (Canada horseweed, Conyza canadensis), waterhemp_RES1, (ALS & Triazine resistant common waterhemp, Amaranthus rudis), and waterhemp_RES2, (ALS & HPPD resistant common waterhemp, Amaranthus rudis) were planted in pots containing Redi-Earth® planting medium (Scotts Company, 14111 Scottslawn Road, Marysville, Ohio 43041) comprising spaghnum peat moss, vermiculite, wetting agent and starter nutrients were treated with postemergence applications of test chemicals formulated in the same manner. Plants ranged in height from 2 to 18 cm for postemergence treatments (1- to 4-leaf stage). Treated plants and controls were maintained in a greenhouse for 14 to 21 days, after which time all species were compared to controls and visually evaluated. Plant response ratings, summarized in Table E, are based on a scale of 0 to 100 where 0 is no effect and 100 is complete control. A dash (-) response means no test result.

soybean = assay type: in vivo, Glycine max
Text: as §1, §2

hairy beggarticks = assay type: in vivo, Bidens pilosa
Text: as §1, §2

dayflower = assay type: in vivo, Commelina virginica
Text: as §1, §2

sandbur = assay type: in vivo, Cenchrus echinatus
Text: as §1, §2

[1] = Postemergence, 31 g ai/ha, scale 0 to 100
[2] = Postemergence, 62 g ai/ha, scale 0 to 100
[3] = Postemergence, 125 g ai/ha, scale 0 to 100
[4] = postemergence, 8 g ai/ha, scale 0 to 100, 0 no effect, 100 complete control
[5] = postemergence, 16 g ai/ha, scale 0 to 100, 0 no effect, 100 complete control

In the case of `Clc1cnc(Oc2ccccc2-n2cc(Br)nn2)nc1` [Compound 223], the “Plant response rating, Field Bindweed” value (field bindweed; [1]) is reported as 35, the “Plant response rating, Field Bindweed” value (field bindweed; [2]) is reported as 50 and the “Plant response rating, Field Bindweed” value (field bindweed; [3]) is reported as 50. For the same molecule, the “Plant response rating, Field Bindweed” value (field bindweed; [4]) was 20, the “Plant response rating, Field Bindweed” value (field bindweed; [5]) was 20 and the “Plant response rating, Soybean” value (soybean; [1]) was 95. For the same molecule, the “Plant response rating, Soybean” value (soybean; [2]) was 98, the “Plant response rating, Soybean” value (soybean; [3]) was 98 and the “Plant response rating, Soybean” value (soybean; [4]) was 30. The “Plant response rating, Soybean” value (soybean; [5]) was 60, the “Plant response rating, Beggarticks” value (hairy beggarticks; [1]) was 60 and the “Plant response rating, Beggarticks” value (hairy beggarticks; [2]) was 75. The “Plant response rating, Beggarticks” value (hairy beggarticks; [3]) was 85, the “Plant response rating, Beggarticks” value (hairy beggarticks; [4]) was 40 and the “Plant response rating, Beggarticks” value (hairy beggarticks; [5]) was 50. The “Plant response rating, Dayflower, VA” value (dayflower; [1]) was 25, the “Plant response rating, Dayflower, VA” value (dayflower; [2]) was 55 and the “Plant response rating, Dayflower, VA” value (dayflower; [3]) was 65. For the same molecule, the “Plant response rating, Dayflower, VA” value (dayflower; [4]) was 0, the “Plant response rating, Dayflower, VA” value (dayflower; [5]) was 0 and the “Plant response rating, Sandbur” value (sandbur; [1]) was 0. For the same molecule, the “Plant response rating, Sandbur” value (sandbur; [2]) was 0, the “Plant response rating, Sandbur” value (sandbur; [3]) was 0 and the “Plant response rating, Sandbur” value (sandbur; [4]) was 0. The “Plant response rating, Sandbur” value (sandbur; [5]) was 0.
In the case of `Clc1cnc(Oc2cccc(Cl)c2-n2cc(I)cn2)nc1` [Compound 181], the “Plant response rating, Field Bindweed” value (field bindweed; [1]) is reported as 40, the “Plant response rating, Field Bindweed” value (field bindweed; [2]) is reported as 40 and the “Plant response rating, Field Bindweed” value (field bindweed; [3]) is reported as 50. The “Plant response rating, Field Bindweed” value (field bindweed; [5]) was 25, the “Plant response rating, Soybean” value (soybean; [1]) was 80 and the “Plant response rating, Soybean” value (soybean; [2]) was 90. For the same molecule, the “Plant response rating, Soybean” value (soybean; [3]) was 95, the “Plant response rating, Soybean” value (soybean; [5]) was 50 and the “Plant response rating, Beggarticks” value (hairy beggarticks; [1]) was 40. The “Plant response rating, Beggarticks” value (hairy beggarticks; [2]) was 50, the “Plant response rating, Beggarticks” value (hairy beggarticks; [3]) was 60 and the “Plant response rating, Beggarticks” value (hairy beggarticks; [5]) was 40. The “Plant response rating, Dayflower, VA” value (dayflower; [1]) was 30, the “Plant response rating, Dayflower, VA” value (dayflower; [2]) was 40 and the “Plant response rating, Dayflower, VA” value (dayflower; [3]) was 60. The “Plant response rating, Dayflower, VA” value (dayflower; [5]) was 20, the “Plant response rating, Sandbur” value (sandbur; [1]) was 15 and the “Plant response rating, Sandbur” value (sandbur; [2]) was 10. For the same molecule, the “Plant response rating, Sandbur” value (sandbur; [3]) was 20 and the “Plant response rating, Sandbur” value (sandbur; [5]) was 5.
Work on `N#Cc1cccc(Oc2ncc(Cl)cn2)c1-n1cc(OCC(F)(F)F)cn1` [Compound 274, 3-[(5-chloro-2-pyrimidinyl)oxy]-2-[4-(2,2,2-trifluoroethoxy)-1H-pyrazol-1-yl]benzonitrile] yielded a pest or weed control at 31 g/ha (field bindweed; Convolvulus arvensis, post-emergence, Postemergence, 31 g ai/ha, scale 0 to 100, read-out: Plant response rating, Field Bindweed) of 50%, a pest or weed control at 62 g/ha (field bindweed; Convolvulus arvensis, post-emergence, Postemergence, 62 g ai/ha, scale 0 to 100, read-out: Plant response rating, Field Bindweed) of 70% and a pest or weed control at 125 g/ha (field bindweed; Convolvulus arvensis, post-emergence, Postemergence, 125 g ai/ha, scale 0 to 100, read-out: Plant response rating, Field Bindweed) of 75%. For the same molecule, the pest or weed control at 8 g/ha (field bindweed; Convolvulus arvensis, post-emergence, postemergence, 8 g ai/ha, scale 0 to 100, 0 no effect, 100 complete control, read-out: Plant response rating, Field Bindweed) was 60%, the pest or weed control at 16 g/ha (field bindweed; Convolvulus arvensis, post-emergence, postemergence, 16 g ai/ha, scale 0 to 100, 0 no effect, 100 complete control, read-out: Plant response rating, Field Bindweed) was 50% and the plant response (crop injury) rating, soybean, 0-100 scale at 31 g/ha (soybean; Glycine max, post-emergence, Postemergence, 31 g ai/ha, scale 0 to 100) was 75%. For the same molecule, the plant response (crop injury) rating, soybean, 0-100 scale at 62 g/ha (soybean; Glycine max, post-emergence, Postemergence, 62 g ai/ha, scale 0 to 100) was 95%, the plant response (crop injury) rating, soybean, 0-100 scale at 125 g/ha (soybean; Glycine max, post-emergence, Postemergence, 125 g ai/ha, scale 0 to 100) was 95% and the plant response (crop injury) rating, soybean, 0-100 scale at 8 g/ha (soybean; Glycine max, post-emergence, postemergence, 8 g ai/ha, scale 0 to 100, 0 no effect, 100 complete control) was 20%. The plant response (crop injury) rating, soybean, 0-100 scale at 16 g/ha (soybean; Glycine max, post-emergence, postemergence, 16 g ai/ha, scale 0 to 100, 0 no effect, 100 complete control) was 35%, the pest or weed control at 31 g/ha (hairy beggarticks; Bidens pilosa, post-emergence, Postemergence, 31 g ai/ha, scale 0 to 100, read-out: Plant response rating, Beggarticks) was 60% and the pest or weed control at 62 g/ha (hairy beggarticks; Bidens pilosa, post-emergence, Postemergence, 62 g ai/ha, scale 0 to 100, read-out: Plant response rating, Beggarticks) was 70%. For the same molecule, the pest or weed control at 125 g/ha (hairy beggarticks; Bidens pilosa, post-emergence, Postemergence, 125 g ai/ha, scale 0 to 100, read-out: Plant response rating, Beggarticks) was 95%, the pest or weed control at 8 g/ha (hairy beggarticks; Bidens pilosa, post-emergence, postemergence, 8 g ai/ha, scale 0 to 100, 0 no effect, 100 complete control, read-out: Plant response rating, Beggarticks) was 30% and the pest or weed control at 16 g/ha (hairy beggarticks; Bidens pilosa, post-emergence, postemergence, 16 g ai/ha, scale 0 to 100, 0 no effect, 100 complete control, read-out: Plant response rating, Beggarticks) was 50%. For the same molecule, the pest or weed control at 31 g/ha (dayflower; Commelina virginica, post-emergence, Postemergence, 31 g ai/ha, scale 0 to 100, read-out: Plant response rating, Dayflower, VA) was 20%, the pest or weed control at 62 g/ha (dayflower; Commelina virginica, post-emergence, Postemergence, 62 g ai/ha, scale 0 to 100, read-out: Plant response rating, Dayflower, VA) was 40% and the pest or weed control at 125 g/ha (dayflower; Commelina virginica, post-emergence, Postemergence, 125 g ai/ha, scale 0 to 100, read-out: Plant response rating, Dayflower, VA) was 70%. It also gave a pest or weed control at 8 g/ha (dayflower; Commelina virginica, post-emergence, postemergence, 8 g ai/ha, scale 0 to 100, 0 no effect, 100 complete control, read-out: Plant response rating, Dayflower, VA) of 5%, a pest or weed control at 16 g/ha (dayflower; Commelina virginica, post-emergence, postemergence, 16 g ai/ha, scale 0 to 100, 0 no effect, 100 complete control, read-out: Plant response rating, Dayflower, VA) of 10% and a pest or weed control at 31 g/ha (sandbur; Cenchrus echinatus, post-emergence, Postemergence, 31 g ai/ha, scale 0 to 100, read-out: Plant response rating, Sandbur) of 10%. It also gave a pest or weed control at 62 g/ha (sandbur; Cenchrus echinatus, post-emergence, Postemergence, 62 g ai/ha, scale 0 to 100, read-out: Plant response rating, Sandbur) of 15%, a pest or weed control at 125 g/ha (sandbur; Cenchrus echinatus, post-emergence, Postemergence, 125 g ai/ha, scale 0 to 100, read-out: Plant response rating, Sandbur) of 0% and a pest or weed control at 8 g/ha (sandbur; Cenchrus echinatus, post-emergence, postemergence, 8 g ai/ha, scale 0 to 100, 0 no effect, 100 complete control, read-out: Plant response rating, Sandbur) of 0%. The pest or weed control at 16 g/ha (sandbur; Cenchrus echinatus, post-emergence, postemergence, 16 g ai/ha, scale 0 to 100, 0 no effect, 100 complete control, read-out: Plant response rating, Sandbur) was 0%.

Reference: patent US9695155B2, “Herbicidal substituted pyrimidinyloxy benzene compounds” (E. I. DU PONT DE NEMOURS AND COMPANY, priority 2013, dated 2017)
